We go through 14 molecules from ChEMBL document CHEMBL3286224, “Optimization of ketone-based P2Y(12) receptor antagonists as antithrombotic agents: pharmacodynamics and receptor kinetics considerations” (Bioorg Med Chem Lett, 2014).

≈ marks a conversion by molar mass, not a printed value. Calls of active or inactive are those of the source. A value given as a limit tells only on which side of the number the result lay.

One data set can be described thus: physchem. Conditions: buffer, pH 7.4.
Data set [1] is described as follows: Aqueous solubility of the compound. In kind it is physicochemical. Conditions: buffer.
Data set [2] in a line: in vitro. Conditions: human, liver microsomes. For orientation: Microsomes from liver hold many membrane-bound enzymes, among them those of drug oxidation.
Description: Half life in human liver microsomes at 1 mg/ml
A short description of data set [3]: Apparent permeability from apical to basolateral side in human Caco2 cells at 10 uM at pH 6.5 after 60 mins by LC-MS analysis. The format is ADME, cell-based. Conditions: Caco-2, pH 6.5. (Caco-2 monolayers are a common model of the intestinal barrier.)
For data set [4], the target named is T1, P2Y purinoceptor 12 (Homo sapiens, UniProt Q9H244).
T1 sequence (Q9H244 whole entry): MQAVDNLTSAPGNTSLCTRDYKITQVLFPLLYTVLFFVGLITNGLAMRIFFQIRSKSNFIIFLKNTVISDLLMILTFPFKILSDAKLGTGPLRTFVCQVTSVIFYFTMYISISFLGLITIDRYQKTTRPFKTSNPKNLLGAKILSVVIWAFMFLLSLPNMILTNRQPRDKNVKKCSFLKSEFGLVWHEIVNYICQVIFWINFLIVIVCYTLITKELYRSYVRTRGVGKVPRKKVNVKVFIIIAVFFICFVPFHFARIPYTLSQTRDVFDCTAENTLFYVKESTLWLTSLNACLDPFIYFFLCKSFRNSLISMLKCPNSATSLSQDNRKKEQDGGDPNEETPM
Description: Antagonist activity at P2Y12 receptor (unknown origin) assessed as inhibition of ADP-induced [35S]GTPgammaS binding after 45 mins by scintillation counting analysis
Data set [5] is described as follows: in vitro. Conditions: human, Caco-2, pH 7.4.
Description: (§1) Apparent permeability from apical to basolateral side in human Caco2 cells at 10 uM at pH 7.4 after 60 mins by LC-MS analysis
Data set [6] is described as follows: AUC in Beagle dog at 1 umol/kg, iv. The format is ADME, organism-based, Canis lupus familiaris. Conditions: plasma.
In data set [7] the target is T2, Thromboxane A2 receptor (Homo sapiens) (UniProt P21731).
T2 sequence (whole entry): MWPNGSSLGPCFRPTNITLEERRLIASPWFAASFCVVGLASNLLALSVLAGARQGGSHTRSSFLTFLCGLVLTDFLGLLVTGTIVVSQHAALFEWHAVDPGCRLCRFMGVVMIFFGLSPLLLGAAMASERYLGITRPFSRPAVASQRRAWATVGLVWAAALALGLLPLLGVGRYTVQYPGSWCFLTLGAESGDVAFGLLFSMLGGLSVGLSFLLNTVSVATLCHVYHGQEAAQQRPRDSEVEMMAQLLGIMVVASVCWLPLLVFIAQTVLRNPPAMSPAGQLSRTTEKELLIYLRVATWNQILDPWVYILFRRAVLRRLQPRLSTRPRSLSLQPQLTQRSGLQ
Briefly: Binding affinity to thromboxane A2 receptor (unknown origin) at 10 uM.

In data set [8] the target is Platelet-activating factor receptor (Homo sapiens) (UniProt P25105). Kind of data set: Binding affinity to PAF receptor (unknown origin) at 10 uM.
Chain of Platelet-activating factor receptor (Homo sapiens) (P25105 whole entry): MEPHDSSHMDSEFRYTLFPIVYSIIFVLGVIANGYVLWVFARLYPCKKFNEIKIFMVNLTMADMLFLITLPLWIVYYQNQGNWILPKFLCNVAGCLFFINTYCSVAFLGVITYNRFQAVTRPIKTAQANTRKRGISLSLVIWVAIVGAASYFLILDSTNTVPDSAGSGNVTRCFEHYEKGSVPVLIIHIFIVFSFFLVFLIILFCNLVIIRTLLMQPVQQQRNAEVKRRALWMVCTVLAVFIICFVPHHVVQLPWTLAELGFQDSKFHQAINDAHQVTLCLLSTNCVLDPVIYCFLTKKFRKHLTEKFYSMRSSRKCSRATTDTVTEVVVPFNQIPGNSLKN
Data set [9] concerns the target T1, P2Y purinoceptor 12. Kind of data set: Displacement of [125I]AZ11931285 from human P2Y12 receptor expressed in CHOK1 cell membrane after 30 seconds. Set-up: species or system CHO-K1. A general note: Displacement assays read how much labelled ligand stays bound in the presence of the test substance.
In data set [10] the target is T1, P2Y purinoceptor 12. Briefly: Displacement of [125I]AZ11931285 from human P2Y12 receptor expressed in CHOK1 cell membrane after 60 seconds. Set-up: species or system CHO-K1.
Data set [11] deals with P2Y purinoceptor 1 (Homo sapiens) (UniProt P47900). Briefly: Binding affinity to P2Y1 receptor (unknown origin) at 10 uM.
Chain of P2Y purinoceptor 1 (Homo sapiens) (P47900 whole entry): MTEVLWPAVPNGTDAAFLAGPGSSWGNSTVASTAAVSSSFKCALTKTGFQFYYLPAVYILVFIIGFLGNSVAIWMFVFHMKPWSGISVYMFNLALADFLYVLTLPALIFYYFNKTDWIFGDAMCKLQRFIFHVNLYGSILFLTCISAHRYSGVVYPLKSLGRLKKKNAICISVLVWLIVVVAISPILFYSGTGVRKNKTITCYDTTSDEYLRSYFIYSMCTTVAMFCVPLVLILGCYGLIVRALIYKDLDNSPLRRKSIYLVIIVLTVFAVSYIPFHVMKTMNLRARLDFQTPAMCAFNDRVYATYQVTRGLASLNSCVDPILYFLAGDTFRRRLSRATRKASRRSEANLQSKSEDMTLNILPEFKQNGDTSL
A short description of data set [12]: Half life in Beagle dog at 1 umol/kg, iv. The format is ADME, organism-based, Canis lupus familiaris. Conditions: in vivo.
The test system of data set [13] is Canis familiaris. Kind of data set: Antithrombotic activity in conscious dog assessed as inhibition of platelet aggregation administered via infusion. In kind it is functional, Canis lupus familiaris.
Data set [14] has as its target T1, P2Y purinoceptor 12. Kind of data set: Displacement of [125I]AZ11931285 from human P2Y12 receptor expressed in CHOK1 cell membrane after 60 mins. Set-up: species or system CHO-K1.
Data set [15] addresses T1, P2Y purinoceptor 12. Kind of data set: Displacement of [125I]AZ11931285 from human P2Y12 receptor expressed in CHOK1 cell membrane after 10 seconds. Set-up: species or system CHO-K1.
A further data set deals with Plasma. Kind of data set: Fraction unbound in Beagle dog plasma at 37 degC after 18 hrs by equilibrium dialysis technique. In kind it is ADME, cell-free, Canis lupus familiaris.
Data set [16] concerns Canis familiaris. Briefly: Toxicity in conscious dog assessed as prolongation of bleeding time at 1.6 umol/kg/min administered via infusion relative to control. The format is organism-based, Canis lupus familiaris. The settings on record: in vivo, iv.
Data set [17] is filed under the species Canis familiaris. Kind of data set: Antithrombotic activity in dog Folt's model of arterial thrombosis assessed as inhibition of platelet aggregation. In kind it is functional, Canis lupus familiaris.
The subject of data set [18] is Canis familiaris. Kind of data set: Toxicity in dog Folt's model of arterial thrombosis assessed as prolongation of bleeding time at 0.015 umol/kg/min. The settings on record: in vivo, iv. The format is organism-based, Canis lupus familiaris.
The test system of data set [19] is Canis familiaris. Kind of data set: Toxicity in dog Folt's model of arterial thrombosis assessed as prolongation of bleeding time at 0.001 to 0.1 umol/kg/min. The format is organism-based, Canis lupus familiaris. The settings on record: in vivo, iv.
The subject of another data set is Caco-2. Conditions: human, caco-2, pH 7.4, 1 h, 10 µM.
Data set [20] deals with Canis familiaris. Briefly: Toxicity in conscious dog assessed as prolongation of bleeding time at 0.02 to 8700 nmol/kg/min administered via infusion relative to control. The format is organism-based, Canis lupus familiaris. Conditions: in vivo, iv.

Description for Caco-2: as §1
Description for physchem: Lipophilicity, log D of the compound at pH 7.4 by HPLC analysis

With `CCCC(=O)c1cc(C#N)c(N2CCC(C(=O)NS(=O)(=O)Cc3ccccc3)CC2)nc1OC`, the pH-dependent lipophilicity (logD) (as a rule, the decadic logarithm of the distribution of all forms, ionised or not, between an organic phase and buffer at a given pH) in the data set “physchem” came to 3.

Consider `CCCC(=O)c1cc(C#N)c(N2CCC(C(=O)NS(=O)(=O)C(C)c3ccccc3)CC2)nc1C` (racemic), for which, in data set [1], the solubility – broadly, how much of the substance goes into solution per volume – is above 100 µM. Besides, in “in vitro [2]”, the half-life (commonly the time needed for the level to fall by half in the phase considered) was above 1.92 h. The molecule further had a logD in “physchem” of 3.3. Further, the Papp A→B (commonly how fast a substance crosses the layer from the apical side) at 1 h, 10 µM in data set [3] amounted to 1 ×10⁻⁶ cm/s. The IC50 – broadly, the concentration that inhibits the measured activity by half – on P2Y purinoceptor 12 [4] is 190 nM.

For the molecule `CCCC(=O)c1cc(C#N)c(N2CCC(C(=O)NS(=O)(=O)Cc3ccc(F)cc3F)CC2)nc1C`, the solubility in data set [1] is above 100 µM. In the data set “in vitro [2]”, this molecule had a half-life above 1.92 h. In “physchem”, this molecule yielded a logD of 3. The Papp A→B at 1 h, 10 µM in [3] was 0.3 ×10⁻⁶ cm/s. On P2Y purinoceptor 12 [4], this molecule came in with an IC50 of 42 nM.

For `CCCC(=O)c1cc(C#N)c(N2CCC(C(=O)NS(=O)(=O)Cc3ccc(C)c(F)c3)CC2)nc1C`, in data set [1], the solubility is above 100 µM. Moreover, the half-life in the data set “in vitro [2]” was above 1.92 h. In the data set “physchem”, this molecule yielded a logD of 3.4. Also, the Papp A→B at 1 h, 10 µM in data set [3] is 0.7 ×10⁻⁶ cm/s. The molecule also came in with an IC50 against P2Y purinoceptor 12 [4] of 130 nM.

On to `CCCC(=O)c1cc(C#N)c(N2CCC(C(=O)NS(=O)(=O)Cc3ccc(Cl)cc3)CC2)nc1C`, for which the solubility in data set [1] is above 100 µM. This molecule registered a half-life in “in vitro [2]” above 1.92 h. In the data set “physchem”, the logD was 3.4. In addition, the Papp A→B at 1 h, 10 µM in data set [3] amounted to 0.4 ×10⁻⁶ cm/s. Further, on P2Y purinoceptor 12 [4], inhibition was half-maximal at 57 nM (IC50).

`CCCC(=O)c1cc(C#N)c(N2CCC(C(=O)NS(=O)(=O)Cc3ccccc3)CC2)nc1C` yielded a solubility in [1] above 100 µM. Besides, the Papp A→B at 1 h, 10 µM in the data set “in vitro [5]” is 0.32 ×10⁻⁶ cm/s; in [3], 0.3 ×10⁻⁶ cm/s. In the data set “in vitro [2]”, the half-life is above 1.92 h. For the same molecule, in the data set “physchem”, the logD was determined as 2.8. This molecule showed an IC50 at P2Y purinoceptor 12 [4] of 100 nM.

Turning to `CCCC(=O)c1cc(C#N)c(N2CCC(C(=O)NS(=O)(=O)C3(c4ccccc4)CC3)CC2)nc1C`, the solubility in [1] is above 100 µM. The same molecule showed a half-life in the data set “in vitro [2]” above 1.92 h. Moreover, the logD in the data set “physchem” worked out at 3.9. Further, the Papp A→B at 1 h, 10 µM in [3] was found to be 5.2 ×10⁻⁶ cm/s. At P2Y purinoceptor 12 [4], this molecule yielded an IC50 of 160 nM.

As to `CCCC(=O)c1cc(C#N)c(N2CCC(C(=O)NS(=O)(=O)C3(c4ccccc4)CC3)CC2)nc1SC`, in data set [6], the AUC (as a rule, concentration integrated over time) was found to be 6.7 µM·h. In addition, the outcome in data set [7], in [8] and in data set [11] was inactive. The IC50 on P2Y purinoceptor 12 [9] stood at 41 nM; on P2Y purinoceptor 12 [10] it was 23 nM; at P2Y purinoceptor 12 [14], 4 nM; on P2Y purinoceptor 12 [15], 126 nM; at P2Y purinoceptor 12 [4], 19 nM. In [1], this molecule gave a solubility of 78 µM (≈ 41.1 µg/mL). This molecule also displayed a Papp A→B at 1 h, 10 µM in the data set “in vitro [5]” of 2 ×10⁻⁶ cm/s. Besides, the half-life in “in vitro [2]” is above 1.92 h; in data set [12], 5.2 h. In addition, the ID80 in the data set with Canis familiaris [13] turned out to be 0.052 µmol/kg/min; in the data set filed under Canis familiaris [17], 0.005 µmol/kg/min. Besides, the inhibition entry in the data set with Canis familiaris [13] (Canis lupus familiaris) was “Dose-dependent effect”. The molecule also returned a Fu with Plasma of 0.41%. In the data set with Canis familiaris [16], the “fold change (FC)” value was 6.7. Further, the Activity entry in the data set with Canis familiaris [18] was “Toxic”.

Consider `CCCC(=O)c1cc(C#N)c(N2CCC(C(=O)NS(=O)(=O)Cc3ccccc3)CC2)nc1CF`, for which the Papp A→B at 1 h, 10 µM in the data set “in vitro [5]” is below 0.1 ×10⁻⁶ cm/s. Also, the logD in the data set “physchem” worked out at 2.7. Further, at P2Y purinoceptor 12 [4], the IC50 was 93 nM.

As to `CCCC(=O)c1cc(C#N)c(N2CCC(C(=O)NS(=O)(=O)Cc3ccc(C)cc3)CC2)nc1C`, the solubility in data set [1] is above 100 µM. The molecule further returned a half-life in “in vitro [2]” above 1.92 h. Also, in “physchem”, the logD is 3.4. Besides, in data set [3], the Papp A→B at 1 h, 10 µM was 1.4 ×10⁻⁶ cm/s. This molecule also displayed an IC50 against P2Y purinoceptor 12 [4] of 59 nM.

The molecule `CCCC(=O)c1cc(C#N)c(N2CCC(C(=O)NS(=O)(=O)Cc3ccccc3Cl)CC2)nc1C` came in with a solubility in data set [1] above 100 µM. The half-life in the data set “in vitro [2]” was above 1.92 h. For the same molecule, in the data set “physchem”, the logD was 3.1. Further, the Papp A→B at 1 h, 10 µM in [3] was determined as 0.4 ×10⁻⁶ cm/s. The molecule further displayed an IC50 at P2Y purinoceptor 12 [4] of 270 nM.

In “in vitro [5]”, `CCCC(=O)c1cc(C#N)c(N2CCC(C(=O)NS(=O)(=O)Cc3ccccc3)CC2)nc1CCC` had a Papp A→B at 1 h, 10 µM of 1.2 ×10⁻⁶ cm/s. In the data set “physchem”, this molecule gave a logD of 3.7. The IC50 on P2Y purinoceptor 12 [4] was found to be 270 nM.

Take `CCCC(=O)c1cc(C#N)c(N2CCC(C(=O)NS(=O)(=O)Cc3ccccc3)CC2)nc1SC`: the solubility in data set [1] is above 100 µM. The molecule further registered a Papp A→B at 1 h, 10 µM in “in vitro [5]” of 0.3 ×10⁻⁶ cm/s. This molecule gave a half-life in the data set “in vitro [2]” above 1.92 h. Moreover, in “physchem”, the logD is 3.1. The same molecule returned an IC50 at P2Y purinoceptor 12 [4] of 17 nM.

In data set [6], `CCOC(=O)c1cc(C#N)c(N2CCC(C(=O)NS(=O)(=O)Cc3ccccc3)CC2)nc1C` yielded an AUC of 5.9 µM·h. Besides, the outcome in data set [7], in data set [8] and in data set [11] was inactive. In addition, the IC50 is 22 nM on P2Y purinoceptor 12 [9], 14 nM on P2Y purinoceptor 12 [10], 9 nM at P2Y purinoceptor 12 [14] and 44 nM at P2Y purinoceptor 12 [15]. Besides, the half-life is 1 h in “in vitro [2]” and 5.1 h in [12]. The logD in the data set “physchem” was determined as 2.8. Further, the ID80 in the data set with Canis familiaris [13] was 0.44 µmol/kg/min; in the data set listed under Canis familiaris [17], 0.009 µmol/kg/min. Also, the Activity result with Canis familiaris [19] and with Canis familiaris [20] was “Non-toxic” each time. In addition, the Papp (in general, a coefficient for how fast a substance crosses the barrier) in the data set on Caco-2 stood at 1 ×10⁻⁶ cm/s.
